Laboratory results as given in PubChem BioAssay (NCI).
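Exposure lasted 48 hours, with cells grown in 96-well plates and compounds tested at five concentrations. Abbreviation: GI50, concentration required for 50% inhibition of growth. TGI: total growth inhibition.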

Key:
Assay in all cases: DTP human tumour cell line panel, 48 h
CAKI-1 renal = test system: CAKI-1 renal
COLO 205 colon = test system: COLO 205 colon
IGROV1 ovarian = test system: IGROV1 ovarian
KM12 colon = test system: KM12 colon
M14 melanoma = test system: M14 melanoma
NCI-H226 lung = test system: NCI-H226 lung
NCI-H522 lung = test system: NCI-H522 lung
PC-3 prostate = test system: PC-3 prostate
SNB-75 CNS = test system: SNB-75 CNS
U251 CNS = test system: U251 CNS

Structure (SMILES) | GI50 (CAKI-1 renal) [µM] | TGI (CAKI-1 renal) [µM] | GI50 (COLO 205 colon) [µM] | TGI (COLO 205 colon) [µM] | GI50 (IGROV1 ovarian) [µM] | TGI (IGROV1 ovarian) [µM] | GI50 (KM12 colon) [µM] | TGI (KM12 colon) [µM] | GI50 (M14 melanoma) [µM] | TGI (M14 melanoma) [µM] | GI50 (NCI-H226 lung) [µM] | TGI (NCI-H226 lung) [µM] | GI50 (NCI-H522 lung) [µM] | TGI (NCI-H522 lung) [µM] | GI50 (PC-3 prostate) [µM] | TGI (PC-3 prostate) [µM] | GI50 (SNB-75 CNS) [µM] | TGI (SNB-75 CNS) [µM] | GI50 (U251 CNS) [µM] | TGI (U251 CNS) [µM]
CC/C=C\C[C@H](O)C/C=C1/C(=O)C=C[C@@H]1C/C=C\CCCCO | 3.14 | 12.8 | 2.45 | 5.99 | 3.22 | 12 | 2.84 | 11.5 | 2.06 | 6.17 | 2.24 | 4.76 | 1.74 | 3.95 | 3.32 | 9.23 | 11 | 38.4 | 3.81 | 13.4
Cc1ccccc1C(C(=O)NC1CCCCC1)N(C(=O)CNc1ncccc1F)c1cccc(F)c1 (stereo not given) | > 53.1 | > 100 | > 100 | > 100 | > 80 | > 100 | > 100 | > 100 | > 100 | > 100 | 38.3 | > 100 | 74.9 | > 100 | > 100 | > 100 | 6.14 | 24.6 | 27.6 | > 100
Oc1ccccc1/C=N\NC(=S)N/N=C/c1ccccc1O | 0.548 | 3.94 | 4.23 | 18.9 | 1.53 | 16.2 | 3.11 | 21.1 | 1.63 | 6.33 | 2.26 | > 100 | 5.76 | 36.5 | 5.99 | > 100 | 2.24 | 38.2 | 1.07 | > 100
O=C(O)c1cn(C2CC2)c2cc(N3CCN(Cc4c(O)ccc5ccccc45)CC3)c(F)cc2c1=O | 3.29 | > 100 | 5.13 | > 100 | 9.64 | > 100 | 9.18 | > 100 | 3.95 | > 100 | 5.45 | > 100 | 2.82 | > 100 | 3.75 | > 100 | 1.94 | 17.8 | 19 | > 100
COc1cc(C2CC(=O)Nc3c2c(C)nn3-c2nc3ccccc3[nH]2)cc(OC)c1O (stereo not given) | 2.36 | 5.44 | 17.2 | 46 | 2.82 | 7.63 | 3.26 | 12.4 | 2.12 | 5.53 | 2.46 | 7.16 | 2.38 | 5.78 | 3.49 | 38.8 | 1.85 | 5.13 | 3.49 | > 40.8
COc1ccc(-c2cn(-c3cc(OC)c(OC)c(OC)c3)c(=O)[nH]2)cc1OC | > 100 | > 100 | > 100 | > 100 | > 100 | > 100 | > 100 | > 100 | > 100 | > 100 | > 100 | > 100 | > 100 | > 100 | > 100 | > 100 | 71.7 | > 100 | > 100 | > 100
